# Reference: patent publication US20140243196A1, “Carbamoylmethoxy- and Carbamoylmethylthio- and Carbamoylmethylamino Benzamides for Combating Invertebrate Pests” (BASF SE, priority 2011, published 2014)
# Key:
# Assay type in all cases: in vivo
# [1] = tested on: Diamond Backmoth (Plutella xylostella); experiment: Diamond backmoth leaf-dip test on cabbage leaves; conditions: 3rd instar larvae on dipped cabbage leaves, 72 hours after treatment, read-out: mortality in comparison with untreated controls
# Method: B.1 Diamond Backmoth (Plutella xylostella)
# The active compound was dissolved at the desired concentration in a mixture of 1:1 (vol:vol) distilled water: acteon. Surfactant (Alkamuls® EL 620) was added at a rate of 0.1% (vol/vol). The test solution was prepared at the day of use.
# Leaves of cabbage were dipped in test solution and air-dried. Treated leaves were placed in petri dishes lined with moist filter paper and inoculated with ten 3rd instar larvae. Mortality was recorded 72 hours after treatment. Feeding damages were also recorded using a scale of 0-100%.
# [2] = tested on: Southern Armyworm (Spodoptera eridiana); experiment: Southern armyworm foliar spray test on lima bean plants; conditions: 96 h, larvae on sprayed lima bean plants, 4 days after treatment, read-out: mortality in comparison with untreated controls
# Method: B.2 Southern Armyworm (Spodoptera eridiana)
# (§1) The active compounds were formulated in cyclohexanone as a 10,000 ppm solution supplied in tubes. The tubes were inserted into an automated electrostatic sprayer equipped with an atomizing nozzle and they served as stock solutions for which lower dilutions were made in 50% acetone:50% water (v/v). A nonionic surfactant (Kinetic®) was included in the solution at a volume of 0.01% (v/v).
# Lima bean plants (variety Sieva) were grown 2 plants to a pot and selected for treatment at the 1st true leaf stage. Test solutions were sprayed onto the foliage by an automated electrostatic plant sprayer equipped with an atomizing spray nozzle. The plants were dried in the sprayer fume hood and then removed from the sprayer. Each pot was placed into perforated plastic bags with a zip closure. About 10 to 11 armyworm larvae were placed into the bag and the bags zipped closed. Test plants were maintained in a growth room at about 25° C. and about 20-40% relative humidity for 4 days, avoiding direct exposure to fluorescent light (24 hour photoperiod) to prevent trapping of heat inside the bags. Mortality and reduced feeding were assessed 4 days after treatment, compared to untreated control plants.
# [3] = tested on: Boll Weevil (Anthonomus grandis); experiment: Boll weevil microtiter plate insect diet test; conditions: 120 h, egg and larval mortality, 5 days, read-out: mortality in comparison with untreated controls
# Method: B.3 Boll Weevil (Anthonomus grandis)
# For evaluating control of boll weevil (Anthonomus grandis) the test unit consisted of 24-well-microtiter plates containing an insect diet and 20-30 A. grandis eggs.
# The compounds were formulated using a solution containing 75% v/v water and 25% v/v DMSO. Different concentrations of formulated compounds were sprayed onto the insect diet at 20 μl, using a custom built micro atomizer, at two replications.
# After application, microtiter plates were incubated at about 23±1° C. and about 50±5% relative humidity for 5 days. Egg and larval mortality was then visually assessed.
# [4] = tested on: Tobacco Budworm (Heliothis virescens); experiment: Tobacco budworm microtiter plate insect diet test; conditions: 120 h, egg and larval mortality, 5 days, read-out: mortality in comparison with untreated controls
# Method: B.4 Tobacco Budworm (Heliothis virescens) I
# For evaluating control of tobacco budworm (Heliothis virescens) the test unit consisted of 96-well-microtiter plates containing an insect diet and 15-25 H. virescens eggs.
# The compounds were formulated using a solution containing 75% v/v water and 25% v/v DMSO. Different concentrations of formulated compounds were sprayed onto the insect diet at 10 μl, using a custom built micro atomizer, at two replications.
# After application, microtiter plates were incubated at about 28±1° C. and about 80±5% relative humidity for 5 days. Egg and larval mortality was then visually assessed.
# [5] = tested on: Green Peach Aphid (Myzus persicae); experiment: Green peach aphid spray test on bell pepper plants; conditions: 120 h, aphids on sprayed bell pepper plants, after 5 days, read-out: mortality in comparison with untreated controls
# From the text: B.6 Green Peach Aphid (Myzus persicae)
# as §1
# Bell pepper plants at the first true-leaf stage were infested prior to treatment by placing heavily infested leaves from the main colony on top of the treatment plants. Aphids were allowed to transfer overnight to accomplish an infestation of 30-50 aphids per plant and the host leaves were removed. The infested plants were then sprayed by an automated electrostatic plant sprayer equipped with an atomizing spray nozzle. The plants were dried in the sprayer fume hood, removed, and then maintained in a growth room under fluorescent lighting in a 24-hr photoperiod at about 25° C. and about 20-40% relative humidity. Aphid mortality on the treated plants, relative to mortality on untreated control plants, was determined after 5 days.
structure (smiles),measurement,setting,value
"Cc1cc(Cl)cc(C(=O)NOCC(=O)N(C)C)c1NC(=O)c1ccc(C(F)(F)F)cc1-c1ncccc1Cl [compound 1-1, 5-chloro-2-[2-(3-chloro-pyridin-2-yl)-4-trifluoromethyl-benzoylamino]-N-dimethylcarbamoylmethoxy-3-methyl-benzamide]",mortality at 500 ppm,[1],≥ 75%
same,mortality at 500 ppm,[2],≥ 75%
same,mortality at 2500 ppm,[3],> 75%
same,mortality at 2500 ppm,[4],> 75%
same,mortality at 2500 ppm,[5],> 75%
